Results from ChEMBL document CHEMBL3872282, “Dithiocarbamates effectively inhibit the β-carbonic anhydrase from the dandruff-producing fungus Malassezia globosa” (Bioorg Med Chem, 2017).
pKi: −log10 of the molar value.

Experiment: Inhibition of Malassezia globosa beta-carbonic anhydrase preincubated for 15 mins prior to testing by phenol red-based stopped-flow CO2 hydration assay

SMILES | pKi
OCCCNC(=S)S | 5.50
S=C(S)N[C@H]1CN2CCC1CC2 | 6.31
CC1COCCN1C(=S)S (configuration not stated) | 6.18
S=C(S)N[C@@H]1CN2CCC1CC2 | 6.14
CC(=O)NC1CCCN(C(=S)S)C1 (configuration not stated) | 6.05
O=C(O)[C@H]1CCCN(C(=S)S)C1 | 6.03
O=C(O)C1CCCN(C(=S)S)C1 (configuration not stated) | 6.14
O=C(O)C1COCCN1C(=S)S (configuration not stated) | 5.32
S=C(S)NC1CN2CCC1CC2 (racemic) | 6.19
OC1CCCN(C(=S)S)C1 (configuration not stated) | 6.17
CC(=O)Nc1nnc(S(N)(=O)=O)s1 [ACETAZOLAMIDE] | 4.13
OCCCCCNC(=S)S | 6.42
NS(=O)(=O)c1ccc(CCNC(=S)S)cc1 | 6.04
CN(C)CCNC(=S)S | 5.53
O=C(O)C1CCCCN1C(=S)S (configuration not stated) | 5.62
O=C(O)C1CCN(C(=S)S)CC1 | 6.25
S=C(S)N1CCCCC1 | 6.11
O=C(O)[C@@H]1CCCN(C(=S)S)C1 | 6.24
OCCCCNC(=S)S | 5.21
S=C(S)NCCc1ccccc1 | 5.33
O=C(CN1CCN(C(=S)S)CC1)NC1CCCCC1 | 6.10
CC(C)(C)OC(=O)NC1CCCN(C(=S)S)C1 (configuration not stated) | 6.19
